ChEMBL document CHEMBL4004847, “New tacrine-derived AChE/BuChE inhibitors: Synthesis and biological evaluation of 5-amino-2-phenyl-4H-pyrano[2,3-b]quinoline-3-carboxylates” (Eur J Med Chem, 2017)
Converted amounts (≈) assume the structure as drawn. The source made the active and inactive calls. No cut-off for these calls is given here.

How the values were obtained:
Cholinesterase = Cholinesterase (Homo sapiens, UniProt P06276)
Description: Inhibition of human BuChE using butyrylthiocholine iodide as substrate preincubated for 5 mins followed by substrate addition measured for 1 min by Ellman's method

Acetylcholinesterase [1] = target: T1, Acetylcholinesterase (Electrophorus electricus, UniProt O42275)
T1 sequence (O42275 whole entry): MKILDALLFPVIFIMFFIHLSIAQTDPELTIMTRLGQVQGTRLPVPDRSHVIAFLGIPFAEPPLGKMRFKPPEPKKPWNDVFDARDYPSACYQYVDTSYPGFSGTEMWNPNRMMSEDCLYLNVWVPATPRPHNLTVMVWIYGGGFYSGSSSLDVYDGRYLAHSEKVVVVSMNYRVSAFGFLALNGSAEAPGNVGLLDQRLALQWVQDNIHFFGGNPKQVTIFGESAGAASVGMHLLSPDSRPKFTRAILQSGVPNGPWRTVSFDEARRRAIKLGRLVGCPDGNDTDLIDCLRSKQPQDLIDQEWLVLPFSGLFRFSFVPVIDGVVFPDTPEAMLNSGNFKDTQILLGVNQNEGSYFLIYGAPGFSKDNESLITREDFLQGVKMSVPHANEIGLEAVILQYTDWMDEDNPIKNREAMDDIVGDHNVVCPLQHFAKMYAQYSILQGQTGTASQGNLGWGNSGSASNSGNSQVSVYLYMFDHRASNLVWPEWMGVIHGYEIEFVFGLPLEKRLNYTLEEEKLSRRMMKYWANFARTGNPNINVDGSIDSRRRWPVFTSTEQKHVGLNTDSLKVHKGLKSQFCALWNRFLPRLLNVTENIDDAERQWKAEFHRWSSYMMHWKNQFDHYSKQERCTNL
Description: Inhibition of electric eel AChE using acetylthiocholine iodide as substrate preincubated for 5 mins followed by substrate addition measured for 1 min by Ellman's method

PC-12 [2] = assay: Neuroprotective activity against H2O2-induced cell death in rat PC12 cells assessed as increase in cell viability at 10 uM preincubated for 3 hrs followed by H2O2 addition measured after 24 hrs by MTT assay; assay type: functional, cell-based
PC-12 [3] = assay: Neuroprotective activity against H2O2-induced cell death in rat PC12 cells assessed as increase in cell viability at 100 uM preincubated for 3 hrs followed by H2O2 addition measured after 24 hrs by MTT assay; assay type: functional, cell-based
HepG2 = assay: cells; conditions: Homo sapiens, HepG2, 24 h
Description: Cytotoxicity against human HepG2 cells assessed as reduction in cell viability after 24 hrs by MTT assay

Acetylcholinesterase [4] = target: T1, Acetylcholinesterase; assay: Mixed-type inhibition of electric eel AChE preincubated for 5 mins followed by varying levels acetylthiocholine iodide substrate addition by Lineweaver-Burk plot analysis

Chain of Cholinesterase (P06276 whole entry): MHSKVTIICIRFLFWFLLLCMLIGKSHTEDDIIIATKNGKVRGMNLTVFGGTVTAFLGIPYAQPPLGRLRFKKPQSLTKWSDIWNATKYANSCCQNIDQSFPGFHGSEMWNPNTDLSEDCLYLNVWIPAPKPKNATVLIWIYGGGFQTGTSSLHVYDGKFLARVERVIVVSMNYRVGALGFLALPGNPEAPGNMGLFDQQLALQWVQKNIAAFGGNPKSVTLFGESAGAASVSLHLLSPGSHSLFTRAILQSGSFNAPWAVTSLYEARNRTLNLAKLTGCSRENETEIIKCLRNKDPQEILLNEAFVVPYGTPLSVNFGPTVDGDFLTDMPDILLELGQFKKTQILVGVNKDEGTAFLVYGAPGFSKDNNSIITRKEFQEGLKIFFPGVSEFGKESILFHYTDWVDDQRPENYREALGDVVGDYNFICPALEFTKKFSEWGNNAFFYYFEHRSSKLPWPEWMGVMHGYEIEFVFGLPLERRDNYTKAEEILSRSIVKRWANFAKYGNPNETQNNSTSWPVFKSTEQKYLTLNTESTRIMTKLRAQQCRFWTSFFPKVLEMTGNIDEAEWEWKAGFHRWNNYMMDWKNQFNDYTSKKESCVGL

Row | SMILES | IC50 (Cholinesterase) | IC50 (Acetylcholinesterase [1]) | Activity (PC-12 [2]) | Activity (PC-12 [3]) | IC50 (HepG2) | Ki (Acetylcholinesterase [4])
1 | CCOC(=O)C1=C(c2ccccc2)Oc2nc3c(c(N)c2C1c1ccc(Cl)cc1Cl)CCCC3 (stereo not drawn) | 22700 nM | 1620 nM |  |  |  | 
2 | CCOC(=O)C1=C(c2ccccc2)Oc2nc3c(c(N)c2C1c1ccccc1Cl)CCCC3 (stereo not drawn) | 2140 nM | 153 nM | Active | Active | > 100 µg/mL | 
3 | CCOC(=O)C1=C(c2ccccc2)Oc2nc3c(c(N)c2C1c1cccc(Br)c1)CCCC3 (stereo not drawn) | 1350 nM | 69 nM |  | Active | 72.8 µg/mL (≈ 144 µM) | 48.5 nM
4 | CCOC(=O)C1=C(c2ccccc2)Oc2nc3c(c(N)c2C1c1cccc(F)c1)CCCC3 (stereo not drawn) | 11700 nM | 778 nM |  |  |  | 
5 | CCOC(=O)C1=C(c2ccccc2)Oc2nc3c(c(N)c2C1c1ccccc1Br)CCCC3 (stereo not drawn) | 2760 nM | 118 nM |  | Active | > 100 µg/mL | 
6 | CCOC(=O)C1=C(c2ccccc2)Oc2nc3c(c(N)c2C1c1ccc(F)cc1)CCCC3 (stereo not drawn) | 6100 nM | 404 nM |  |  |  | 
7 | CCOC(=O)C1=C(c2ccccc2)Oc2nc3c(c(N)c2C1c1ccc(C)cc1)CCCC3 (stereo not drawn) | 54100 nM | 4160 nM |  |  |  | 
8 | CCOC(=O)C1=C(c2ccccc2)Oc2nc3c(c(N)c2C1c1cccc(OC)c1)CCCC3 (stereo not drawn) | 7140 nM | 510 nM |  |  |  | 
9 | CCOC(=O)C1=C(c2ccccc2)Oc2nc3c(c(N)c2C1c1ccc(Br)cc1)CCCC3 (stereo not drawn) | 74200 nM | 6220 nM |  |  |  | 
10 | CCOC(=O)C1=C(c2ccccc2)Oc2nc3c(c(N)c2C1c1ccc(OC)cc1)CCCC3 (stereo not drawn) | 5760 nM | 480 nM |  |  |  | 
11 | CCOC(=O)C1=C(c2ccccc2)Oc2nc3c(c(N)c2C1c1cccc(Cl)c1)CCCC3 (stereo not drawn) | 3100 nM | 228 nM |  | Active | 50.4 µg/mL (≈ 109 µM) | 
12 | CCOC(=O)C1=C(c2ccccc2)Oc2nc3c(c(N)c2C1c1ccc(Cl)cc1)CCCC3 (stereo not drawn) | 17600 nM | 1100 nM |  |  |  | 
13 | CCOC(=O)C1=C(c2ccccc2)Oc2nc3c(c(N)c2C1c1ccccc1)CCCC3 (stereo not drawn) | 5490 nM | 423 nM |  |  |  | 
14 | CCOC(=O)C1=C(c2ccccc2)Oc2nc3c(c(N)c2C1c1ccccc1F)CCCC3 (stereo not drawn) | 3630 nM | 370 nM |  |  |  | 
15 | CCOC(=O)C1=C(c2ccccc2)Oc2nc3c(c(N)c2C1c1cccc([N+](=O)[O-])c1)CCCC3 (stereo not drawn) | 40900 nM | 2730 nM |  |  | > 100 µg/mL | 
16 | CCOC(=O)C1=C(c2ccccc2)Oc2nc3c(c(N)c2C1c1ccc([N+](=O)[O-])cc1)CCCC3 (stereo not drawn) | 9910 nM | 583 nM |  |  |  | 
